According to US20210038607A1, “OXADIAZOLYLTHIOPHENE DERIVATIVES USEFUL AS HISTONE DEACETYLASE INHIBITORS” (Karus Therapeutics Limited, priority 2018, published 2021):

Experiments:
[1] = target: T1, Human HDAC2 (Homo sapiens, UniProt Q92769); assay: HDAC2 biochemical assay, AMC-labeled peptide substrate; details: read-out: HDAC Isoform IC50 (nM) 2
T1 construct: full length with C-terminal GST-tag; GST (C); host or cells: baculovirus expression system
How it was run: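 Full-length human HDAC2 with C-terminal GST tag, baculovirus-expressed, at 0.07 ng/ul with 50 μM RHKK(Ac)AMC substrate in Tris-HCl pH8.0 buffer with BSA, 1% DMSO final. Incubated 1 hour at 30° C with compounds, then developer added; fluorescence read at 360/460 Ex/Em.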

[2] = target: T2, Human HDAC8 (Homo sapiens, UniProt Q9BY41); assay: HDAC8 biochemical assay, AMC-labeled peptide substrate; details: read-out: HDAC Isoform IC50 (nM) 8
T2 construct: full length with C-terminal His tag, MW=42.6 kDa; His (C); host or cells: baculovirus expression system
T2 sequence (Q9BY41 1-377): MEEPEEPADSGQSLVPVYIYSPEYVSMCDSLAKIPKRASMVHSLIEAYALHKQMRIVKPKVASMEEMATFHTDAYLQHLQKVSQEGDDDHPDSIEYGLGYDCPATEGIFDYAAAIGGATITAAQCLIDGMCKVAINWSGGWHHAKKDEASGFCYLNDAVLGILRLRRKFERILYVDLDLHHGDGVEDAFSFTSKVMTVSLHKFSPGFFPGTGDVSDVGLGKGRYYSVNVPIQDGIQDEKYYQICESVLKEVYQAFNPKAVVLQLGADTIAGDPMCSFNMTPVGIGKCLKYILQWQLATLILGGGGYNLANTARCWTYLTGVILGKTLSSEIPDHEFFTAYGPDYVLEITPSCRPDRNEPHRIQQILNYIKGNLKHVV
How it was run: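 Two-step fluorogenic readout: compounds and enzyme deacetylate 100 µM RHK(Ac)K(Ac)AMC for 2 h at 30° C (pH8.0 Tris buffer, BSA, 1% DMSO final), then developer releases AMC, read at 360/460 Ex/Em. Enzyme: 1 ng/ul full-length His-tagged human HDAC8 from baculovirus.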

[3] = target: T3, Human HDAC9 (Homo sapiens, UniProt Q9UKV0); assay: HDAC9 biochemical assay, class IIa-specific substrate; details: read-out: HDAC Isoform IC50 (nM) 9
T3 construct: amino acids 604-1066 with C-terminal His tag; His (C); host or cells: baculovirus expression system
How it was run: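 HDAC9 residues 604-1066 (C-terminal His tag, baculovirus-expressed) at 0.06 ng/ul with 50 μM class IIa substrate Boc-Lys(trifluoroacetyl)-AMC in Tris-HCl pH 8.0 buffer with BSA and 1% DMSO. 30 min at room temperature, then developer added; fluorescence read at 360/460 nm Ex/Em.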

[4] = target: T4, Human HDAC5 (Homo sapiens, UniProt Q9UQL6); assay: HDAC5 biochemical assay, class IIa-specific substrate; details: read-out: HDAC Isoform IC50 (nM) 5
T4 construct: full length with C-terminal His tag, MW=51.1 kDa; His (C); host or cells: baculovirus expression system
How it was run: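 Two-step fluorogenic read-out: deacetylated trifluoroacetyl-lysine AMC substrate (50 μM) digested by developer, measured at Ex/Em 360/460. Deacetylation step: 0.05 ng/ul His-tagged full-length baculoviral enzyme with compound, 30 min, room temperature, pH 8.0 Tris with 1 mg/mL BSA and 1% DMSO.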

[5] = target: T5, Human HDAC10 (Homo sapiens, UniProt Q969S8); assay: HDAC10 biochemical assay, AMC-labeled peptide substrate; details: read-out: HDAC Isoform IC50 (nM) 10
T5 construct: Human HDAC10 (a.a. 1-481); GST (N); His (C); host or cells: baculovirus expression system
T5 sequence (Q969S8 1-481): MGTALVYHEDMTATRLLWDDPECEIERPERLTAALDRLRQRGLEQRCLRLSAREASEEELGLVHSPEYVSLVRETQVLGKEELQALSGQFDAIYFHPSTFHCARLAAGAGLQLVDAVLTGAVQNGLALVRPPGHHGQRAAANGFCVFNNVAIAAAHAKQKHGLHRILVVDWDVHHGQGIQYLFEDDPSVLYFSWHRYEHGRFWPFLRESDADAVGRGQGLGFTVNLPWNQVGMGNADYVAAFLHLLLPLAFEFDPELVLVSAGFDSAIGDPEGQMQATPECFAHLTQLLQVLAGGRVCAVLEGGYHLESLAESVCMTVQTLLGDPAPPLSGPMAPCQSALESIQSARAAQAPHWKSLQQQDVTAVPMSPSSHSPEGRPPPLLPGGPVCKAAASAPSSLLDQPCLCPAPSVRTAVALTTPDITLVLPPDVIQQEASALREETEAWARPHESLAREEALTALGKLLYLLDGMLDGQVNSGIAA
How it was run: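 Two-step fluorogenic read-out (Ex/Em 360/460) after developer digestion of deacetylated RHKK(Ac)AMC (50 μM). Deacetylation ran 2 h at 30 °C with 12 ng/ul HDAC10 (aa 1-481, GST/His tags, baculovirus) in Tris-HCl pH 8.0, BSA, 1% DMSO.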

[6] = target: T6, Human HDAC4 (Homo sapiens, UniProt P56524); assay: HDAC4 biochemical assay, class IIa-specific substrate; details: read-out: HDAC Isoform IC50 (nM) 4
T6 construct: amino acids 627-1085 with N-terminal GST tag; GST (N); host or cells: baculovirus expression system
How it was run: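 Two-step fluorogenic read-out: deacetylated BOC-Lys(trifluoroacetyl)-AMC (50 μM) was digested by developer and measured at Ex/Em 360/460. Deacetylation by 0.004 ng/ul HDAC4 (aa 627-1085, N-terminal GST) ran 30 min at room temperature, pH 8.0 Tris buffer, 1 mg/mL BSA, 1% DMSO.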

T3 sequence (Q9UKV0 604-1066 isoform Q9UKV0-5): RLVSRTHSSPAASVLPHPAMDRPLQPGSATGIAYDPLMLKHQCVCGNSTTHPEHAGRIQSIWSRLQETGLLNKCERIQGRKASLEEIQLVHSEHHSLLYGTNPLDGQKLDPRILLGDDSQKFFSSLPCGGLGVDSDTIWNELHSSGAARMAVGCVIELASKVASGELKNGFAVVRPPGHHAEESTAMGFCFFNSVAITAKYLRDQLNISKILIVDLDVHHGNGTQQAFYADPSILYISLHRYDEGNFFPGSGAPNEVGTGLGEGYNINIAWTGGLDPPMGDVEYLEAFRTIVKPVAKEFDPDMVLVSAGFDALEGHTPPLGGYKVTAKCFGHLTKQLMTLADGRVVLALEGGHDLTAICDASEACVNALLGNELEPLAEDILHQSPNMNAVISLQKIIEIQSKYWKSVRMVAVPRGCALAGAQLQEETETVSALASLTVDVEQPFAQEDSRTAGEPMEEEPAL
T1 sequence (Q92769 whole entry, canonical isoform): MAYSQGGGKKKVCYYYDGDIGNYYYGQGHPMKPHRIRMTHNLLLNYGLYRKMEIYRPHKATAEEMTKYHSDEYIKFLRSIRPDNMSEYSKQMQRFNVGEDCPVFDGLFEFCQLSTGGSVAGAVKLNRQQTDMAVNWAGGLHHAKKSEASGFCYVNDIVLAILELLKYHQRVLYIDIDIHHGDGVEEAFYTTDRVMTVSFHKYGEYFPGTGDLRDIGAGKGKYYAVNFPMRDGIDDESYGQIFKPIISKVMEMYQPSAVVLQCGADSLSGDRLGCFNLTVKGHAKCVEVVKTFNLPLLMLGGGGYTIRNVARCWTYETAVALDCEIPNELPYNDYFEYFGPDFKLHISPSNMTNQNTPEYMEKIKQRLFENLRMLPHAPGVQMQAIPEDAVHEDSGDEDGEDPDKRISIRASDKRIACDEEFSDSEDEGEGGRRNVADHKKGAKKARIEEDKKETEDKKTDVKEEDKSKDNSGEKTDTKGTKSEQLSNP
T6 sequence (P56524 627-1084 limits assumed): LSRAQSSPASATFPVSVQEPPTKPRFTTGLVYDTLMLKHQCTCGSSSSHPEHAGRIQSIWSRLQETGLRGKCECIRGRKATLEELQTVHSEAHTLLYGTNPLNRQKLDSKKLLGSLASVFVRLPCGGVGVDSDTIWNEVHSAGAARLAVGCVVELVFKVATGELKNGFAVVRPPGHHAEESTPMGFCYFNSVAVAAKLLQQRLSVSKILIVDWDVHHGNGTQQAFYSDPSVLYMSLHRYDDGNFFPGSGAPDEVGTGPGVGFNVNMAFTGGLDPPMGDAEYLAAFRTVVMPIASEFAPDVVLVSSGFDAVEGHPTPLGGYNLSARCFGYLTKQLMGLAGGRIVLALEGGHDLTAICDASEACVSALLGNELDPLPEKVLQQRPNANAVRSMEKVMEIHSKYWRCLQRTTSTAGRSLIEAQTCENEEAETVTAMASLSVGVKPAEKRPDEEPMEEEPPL
T4 sequence (Q9UQL6 656-1122 limits assumed): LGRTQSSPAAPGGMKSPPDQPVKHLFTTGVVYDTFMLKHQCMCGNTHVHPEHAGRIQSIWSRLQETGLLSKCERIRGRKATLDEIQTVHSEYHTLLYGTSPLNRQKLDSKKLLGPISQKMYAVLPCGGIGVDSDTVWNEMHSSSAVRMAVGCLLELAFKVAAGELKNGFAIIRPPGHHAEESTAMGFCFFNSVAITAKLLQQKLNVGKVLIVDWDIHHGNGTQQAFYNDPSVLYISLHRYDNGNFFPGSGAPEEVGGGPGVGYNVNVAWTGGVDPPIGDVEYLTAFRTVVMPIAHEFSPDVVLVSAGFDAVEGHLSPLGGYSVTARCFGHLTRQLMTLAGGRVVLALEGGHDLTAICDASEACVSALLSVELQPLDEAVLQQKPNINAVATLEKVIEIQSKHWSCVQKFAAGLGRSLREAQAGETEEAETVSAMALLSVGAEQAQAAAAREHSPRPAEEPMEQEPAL

IC50 [1] [nM]	IC50 [2] [nM]	IC50 [3] [nM]	IC50 [4] [nM]	IC50 [5] [nM]	IC50 [6] [nM]	Structure (SMILES)
> 10000	≤ 10000	≤ 10000	≤ 1000	> 10000	≤ 10000	O=C(c1cnnc(N(Cc2ccc(-c3noc(C(F)(F)F)n3)s2)c2cnccn2)c1)N1CC(O)(C(F)(F)F)C1 [Example GD, 1-{6-[(Pyrazin-2-yl)({5-[5-(trifluoromethyl)-1,2,4-oxadiazol-3-yl]thiophen-2-yl}methyl)amino]pyridazine-4-carbonyl}-3-(trifluoromethyl)azetidin-3-ol]
> 10000	≤ 10000	≤ 10000	≤ 1000	> 10000	≤ 10000	COc1cncc(N(Cc2ccc(-c3noc(C(F)(F)F)n3)s2)c2cnccn2)n1 [Example BQ, 6-Methoxy-N-(pyrazin-2-yl)-N-({5-[5-(trifluoromethyl)-1,2,4-oxadiazol-3-yl]thiophen-2-yl}methyl)pyrazin-2-amine]
> 10000	≤ 10000	≤ 10000	≤ 1000	> 10000	≤ 1000	FC(F)(F)c1nc(-c2ccc(CN(c3cnccn3)c3cnc(N4CCOCC4)cn3)s2)no1 [Example BM, 5-(Morpholin-4-yl)-N-(pyrazin-2-yl)-N-({5-[5-(trifluoromethyl)-1,2,4-oxadiazol-3-yl]thiophen-2-yl}methyl)pyrazin-2-amine]
> 10000	≤ 10000	≤ 10000	≤ 1000	> 10000	≤ 10000	COC1CN(C(=O)c2cnnc(N(Cc3ccc(-c4noc(C(F)(F)F)n4)s3)c3cnccn3)c2)C1 [Example DZ, 5-(3-Methoxyazetidine-1-carbonyl)-N-(pyrazin-2-yl)-N-({5-[5-(trifluoromethyl)-1,2,4-oxadiazol-3-yl]thiophen-2-yl}methyl)pyridazin-3-amine]
> 10000	≤ 10000	≤ 10000	≤ 1000	> 10000	≤ 1000	CC(C)(O)c1cnnc(N(Cc2ccc(-c3noc(C(F)(F)F)n3)s2)c2cnccn2)c1 [Example GS, 2-{6-[(Pyrazin-2-yl)({5-[5-(trifluoromethyl)-1,2,4-oxadiazol-3-yl]thiophen-2-yl}methyl)amino]pyridazin-4-yl}propan-2-ol]

The remaining lines, values behind:

Structure (SMILES)	IC50 [1] [nM]	IC50 [2] [nM]	IC50 [3] [nM]	IC50 [4] [nM]	IC50 [5] [nM]	IC50 [6] [nM]
O=C(O)c1ccc(N(Cc2sc(-c3noc(C(F)(F)F)n3)cc2F)c2cnccn2)nn1 [Example EZ, 6-[({3-Fluoro-5-[5-(trifluoromethyl)-1,2,4-oxadiazol-3-yl]thiophen-2-yl}methyl)(pyrazin-2-yl)amino]pyridazine-3-carboxylic acid]	> 10000	≤ 10000	≤ 10000	≤ 10000	> 10000	≤ 10000
O=C(c1ccc(N(Cc2ccc(-c3noc(C(F)(F)F)n3)s2)c2cnccn2)nn1)N1C[C@@H]2C[C@H]1C[S@@+]2[O-] [Example FR, (1S,2R,4S)-5-{6-[(Pyrazin-2-yl)({5-[5-(trifluoromethyl)-1,2,4-oxadiazol-3-yl]thiophen-2-yl}methyl)amino]pyridazine-3-carbonyl}-2-thia-5-azabicyclo[2.2.1]heptan-2-ium-2-olate]	> 10000	≤ 10000	≤ 1000	≤ 500	> 10000	≤ 500
O=C(c1ccc(N(Cc2ccc(-c3noc(C(F)(F)F)n3)s2)c2cnccn2)nn1)N1CCCCC1 [Example FG, 6-(Piperidine-1-carbonyl)-N-(pyrazin-2-yl)-N-({5-[5-(trifluoromethyl)-1,2,4-oxadiazol-3-yl]thiophen-2-yl}methyl)pyridazin-3-amine]	> 10000	≤ 10000	≤ 1000	≤ 500	> 10000	≤ 500
O=C(c1nccnc1N(Cc1ccc(-c2noc(C(F)(F)F)n2)s1)c1cnccn1)N1CC(O)(C(F)(F)F)C1 [Example GQ, 1-{3-[(Pyrazin-2-yl)({5-[5-(trifluoromethyl)-1,2,4-oxadiazol-3-yl]thiophen-2-yl}methyl)amino]pyrazine-2-carbonyl}-3-(trifluoromethyl)azetidin-3-ol]	> 10000	≤ 10000	≤ 10000	≤ 10000	> 10000	≤ 10000
NC(=O)c1nccnc1N(Cc1ccc(-c2noc(C(F)(F)F)n2)s1)c1cnccn1 [Example GO, 3-[(Pyrazin-2-yl)({5-[5-(trifluoromethyl)-1,2,4-oxadiazol-3-yl]thiophen-2-yl}methyl)amino]pyrazine-2-carboxamide]	> 10000	≤ 10000	≤ 10000	≤ 10000	> 10000	≤ 10000
COC1(C(F)(F)F)CN(C(=O)c2cnnc(N(Cc3ccc(-c4noc(C(F)(F)F)n4)s3)c3cnccn3)c2)C1 [Example GL, 5-[3-Methoxy-3-(trifluoromethyl)azetidine-1-carbonyl]-N-(pyrazin-2-yl)-N-({5-[5-(trifluoromethyl)-1,2,4-oxadiazol-3-yl]thiophen-2-yl}methyl)pyridazin-3-amine]	> 10000	≤ 10000	≤ 10000	≤ 1000	> 10000	≤ 10000
COC1CN(Cc2ccnc(N(Cc3ccc(-c4noc(C(F)(F)F)n4)s3)c3cnccn3)c2)C1 [Example GH, N-{4-[(3-Methoxyazetidin-1-yl)methyl]pyridin-2-yl}-N-({5-[5-(trifluoromethyl)-1,2,4-oxadiazol-3-yl]thiophen-2-yl}methyl)pyrazin-2-amine]	> 10000	≤ 10000	≤ 10000	≤ 1000	> 10000	≤ 10000
OC1(c2cnnc(N(Cc3ccc(-c4noc(C(F)(F)F)n4)s3)c3cnccn3)c2)COC1 [Example GW, 3-{6-[(Pyrazin-2-yl)({5-[5-(trifluoromethyl)-1,2,4-oxadiazol-3-yl]thiophen-2-yl}methyl)amino]pyridazin-4-yl}oxetan-3-ol]	> 10000	≤ 10000	≤ 10000	≤ 10000	> 10000	≤ 10000
O=C(c1cncc(N(Cc2ccc(-c3noc(C(F)(F)F)n3)s2)c2cnccn2)c1)N1CCOCC1 [Example GR, N-[5-(Morpholine-4-carbonyl)pyridin-3-yl]-N-({5-[5-(trifluoromethyl)-1,2,4-oxadiazol-3-yl]thiophen-2-yl}methyl)pyrazin-2-amine]	> 10000	≤ 10000	≤ 10000	≤ 500	> 10000	≤ 1000
